Assay results published in patent US20260191838A1, “COMBINATIONS COMPRISING A MENIN-MLL INHIBITOR AND A BCL-2 INHIBITOR” (JANSSEN PHARMACEUTICA NV, priority 2022, published 2026).

What was measured:
MOLM14 cells = assay: Proliferation (spheroid) assay, MOLM14; type: cell-based; details: Homo sapiens, MOLM-14, 192 h, 8 days; read-out: spheroid assay_MOLM14 IC50
Method: The anti-proliferative effect of menin/MLL protein/protein interaction inhibitor test compounds was assessed in human leukemia cell lines. The cell line MOLM14 harbors a MLL translocation and expresses the MLL fusion protein MLL-AF9, respectively, as well as the wildtype protein from the second allele. OCI-AML3 cells that carry the NPM1c gene mutation were also tested. […] KO-52 was used as a control cell line containing two MLL (KMT2A) wildtype alleles in order to exclude compounds that display general cytotoxic effects.
MOLM14 cells were cultured in RPMI-1640 (Sigma Aldrich) supplemented with 10% heat-inactivated fetal bovine serum (HyClone), 2 mM L-glutamine (Sigma Aldrich) and 50 μg/ml gentamycin (Gibco). KO-52 and OCI-AML3 cell lines were propagated in alpha-MEM (Sigma Aldrich) supplemented with 20% heat-inactivated fetal bovine serum (HyClone), 2 mM L-glutamine (Sigma Aldrich) and 50 μg/ml gentamycin (Gibco).
In order to assess the anti-proliferative effects, 200 MOLM14 cells, […] or 300 KO-52 cells were seeded in 200 μl media per well in 96-well round bottom, ultra-low attachment plates (Costar, catalogue number 7007). Cell seeding numbers were chosen based on growth curves to ensure linear growth throughout the experiment. Test compounds were added at different concentrations and the DMSO content was normalized to 0.3%. Cells were incubated for 8 days at 37° C. and 5% CO2. Spheroid like growth was measured in real-time by live-cell imaging (IncuCyteZOOM, Essenbio, 4× objective) acquiring images at day 8. Confluence (%) as a measure of spheroid size was determined using an integrated analysis tool.
In order to determine the effect of the test compounds over time, the confluence in each well as a measure of spheroid size, was calculated. Confluence of the highest dose of a reference compound was used as baseline for the LC (Low control) and the confluence of DMSO treated cells was used as 0% cytotoxicity (High Control, HC).
Absolute IC50 values were calculated as percent change in confluence as follows: • LC=Low Control: cells treated with e.g. 1 μM of the cytotoxic agent staurosporin, or e.g. cells treated with a high concentration of an alternative reference compound • HC═High Control: Mean confluence (%) (DMSO treated cells) • % Effect=100−(100*(Sample-LC)/(HC-LC))
GraphPad Prism (version 7.00) was used to calculate the ICso. Dose-response equation was used for the plot of % Effect vs Log10 compound concentration with a variable slope and fixing the maximum to 100% and the minimum to 0%.

MEIS1 mRNA = MEIS1 mRNA expression assay (Quantigene Singleplex) in MOLM14 cells; type: cell-based; details: Homo sapiens, MOLM-14, 48 h
Method: 2b) MEIS1 mRNA Expression Assay
MEIS1 mRNA expression upon treatment of compound was examined by Quantigene Singleplex assay (Thermo Fisher Scientific). This technology allows for direct quantification of mRNA targets using probes hybridizing to defined target sequences of interest and the signal is detected using a Multimode plate reader Envision (PerkinElmer). The MOLM14 cell line was used for this experiment. Cells were plated in 96-well plates at 3,750 cells/well in the presence of increasing concentrations of compounds. After incubation of 48 hours with compounds, cells were lysed in lysis buffer and incubated for 45 minutes at 55° C. Cell lysates were mixed with human MEIS1 specific capture probe or human RPL28 (Ribosomal Protein L28) specific probe as a normalization control, as well as blocking probes. Cell lysates were then transferred to the custom assay hybridization plate (Thermo Fisher Scientific) and incubated for 18 to 22 hours at 55° C. Subsequently, plates were washed to remove unbound materials followed by sequential addition of preamplifiers, amplifiers, and label probe. Signals (=gene counts) were measured with a Multimode plate reader Envision. IC50s were calculated by dose-response modelling using appropriate software. For all non-housekeeper genes response equal counts corrected for background and relative expression. For each sample, each test gene signal (background subtracted) was divided by the normalization gene signal (RPL28: background subtracted). Fold changes were calculated by dividing the normalized values for the treated samples by the normalized values for the DMSO treated sample. Fold changes of each target gene were used for the calculation of IC50s.

[1] = test system: MOLM-13 tumors in NSG mice; assay: Efficacy (survival) in disseminated MOLM-13 (KMT2A-rearranged) IV model in NSG mice; type: in vivo; details: NSG mice with established MOLM-13 tumors, 4 weeks treatment; azacitidine 2 mg/kg ip QD × 7, venetoclax 100 mg/kg po QD × 28, Compound 51 2 mg/kg po QD × 28 (Table 6)
Method: 4) Efficacy of Menin-KMT2A Inhibitor in Combination with Venetoclax, and Optionally, Azacitidine, in MOLM-13 (KMT2A-Rearranged) IV Model in NSG Mice
Compound 51 was formulated in purified pyrogen-free deionized water, pH 4.0 and prepared to reach a total volume of 8 mL/kg. Doses were adjusted by individual body weight each day. Working stocks of Compound 51 were prepared once per week for each study and stored at 25° C.
Female NSG (NOD.Cg-Prkdc^scid Il2rg^tm1Wj1/SzJ) mice were used when they were approximately 6 to 8 weeks of age and weighed approximately 25 g. All animals could acclimate and recover from any shipping-related stress for a minimum of 7 days prior to experimental use. Autoclaved water and irradiated food were provided ad libitum, and the animals were maintained on a 12 hour light and dark cycle. Cages, bedding, and water bottles were autoclaved before use and changed weekly. The tissue culture and cell injection reagents are summarized below in Table 5.
Tumor Model and Cell Culture Method
Human AML MOLM-13 cells were cultured at 37° C., 5% CO2 in the indicated complete culture media (RPMI 1640+10% HI-FBS+2 mM L-glutamine+50 μg/ml Gentamycin). Cells were harvested while in logarithmic growth and resuspended in cold (4° C.) Roswell Park Memorial Institute (RPMI) 1640 in serum-free medium.
For the disseminated MOLM-13 model, each mouse received 1×10^5 cells via IV injection in a total volume of 0.2 mL using a 26-gauge needle.
Day 0 is the day of tumor cell implantation and study initiation.
Mice bearing IV MOLM-13 xenograft tumors were randomly assigned to treatment groups 5 days post-tumor cell engraftment.
Animals were monitored daily for clinical signs related to either compound toxicity or tumor burden (i.e., hind limb paralysis, lethargy, etc.).
For survival assessment, results were plotted as the percentage survival against days post tumor implant. Negative clinical signs and/or ≥20% body weight loss was used as a surrogate endpoint for death. Median survival was determined utilizing Kaplan-Meier survival analysis. The percent increased life span (ILS) was calculated as: ((median survival day of treated group−median survival day of control group)/median survival day of control group)×100. Animals failing to reach the surrogate endpoint due to adverse clinical signs or death unrelated to treatment were censored for the survival assessment. As defined by NCI criteria, ≅25% ILS is considered biologically significant. (Johnson J I et al. Br J Cancer. 2001. 84(10), 1424-1431).
Survival and body weight data were graphically represented utilizing Prism (Version 9). Statistical significance for body weights was evaluated as described above. Statistical significance was evaluated for Kaplan-Meier survival plots comparing therapeutic treatment group vs. appropriate vehicle-treated control using log-rank (Mantel-Cox) test in R software version 3.4.2. Differences between groups were considered significant when the p value was ≤0.05.
The disseminated MOLM-13 model described above was used to examine the efficacy of menin-KMT2A-inhibitor (formulated as described above) in combination with venetoclax (formulated in polyethylene glycol [PEG]-400/Phosal50/dimethyl sulfoxide [DMSO]), and optionally azacitidine (formulated in 0.9% saline). Treatment with compound(s) was initiated 5 days after cell injection. Compound 51 was given in the morning, and venetoclax or azacitidine was given in the afternoon, approximately 6-8 hr apart.

Menin/MLL = target: T1, Menin/MLL (Homo sapiens, UniProt O00255, T541A); assay: Menin/MLL homogenous time-resolved fluorescence (HTRF) assay; type: binding; details: 30 min incubation of test compound with terbium chelate-labeled menin
T1 construct: Menin (a.a 1-610-6×his tag, 2.3 mg/mL in 20 mM Hepes)
T1 sequence (O00255 with tags, fused parts or gaps T541A): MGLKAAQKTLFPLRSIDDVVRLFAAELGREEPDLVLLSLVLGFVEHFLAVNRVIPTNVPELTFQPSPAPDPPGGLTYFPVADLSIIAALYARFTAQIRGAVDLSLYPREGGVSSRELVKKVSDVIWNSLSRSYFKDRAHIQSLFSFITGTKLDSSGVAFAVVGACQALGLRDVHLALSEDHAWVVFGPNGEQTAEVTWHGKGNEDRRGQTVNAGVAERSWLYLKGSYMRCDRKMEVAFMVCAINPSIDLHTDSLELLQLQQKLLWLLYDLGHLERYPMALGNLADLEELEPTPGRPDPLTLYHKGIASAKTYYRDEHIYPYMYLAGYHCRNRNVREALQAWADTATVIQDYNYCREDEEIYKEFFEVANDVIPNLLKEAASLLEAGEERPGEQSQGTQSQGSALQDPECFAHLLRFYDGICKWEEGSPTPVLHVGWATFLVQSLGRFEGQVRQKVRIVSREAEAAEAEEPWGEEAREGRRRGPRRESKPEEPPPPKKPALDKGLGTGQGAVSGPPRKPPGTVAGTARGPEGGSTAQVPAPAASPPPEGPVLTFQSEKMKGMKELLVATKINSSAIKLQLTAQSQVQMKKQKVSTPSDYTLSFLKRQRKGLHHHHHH
Method: 1) Menin/MLL Homogenous Time-Resolved Fluorescence (HTRF) Assay
To an untreated, white 384-well microtiter plate was added 40 nL 200× test compound in DMSO and 4 μL 2× terbium chelate-labeled menin (vide infra for preparation) in assay buffer (40 mM Tris.HCl, pH 7.5, 50 mM NaCl, 1 mM DTT (dithiothreitol) and 0.05% Pluronic F-127). After incubation of test compound and terbium chelate-labeled menin for 30 min at ambient temperature, 4 μL 2×FITC-MBM1 peptide (FITC-β-alanine-[…]-NH2) (“FITC” means fluorescein isothiocyanate) in assay buffer was added, the microtiter plate centrifuged at 1000 rpm for 1 min and the assay mixtures incubated for 15 min at ambient temperature. The relative amount of menin-FITC-MBM1 complex present in an assay mixture is determined by measuring the homogenous time-resolved fluorescence (HTRF) of the terbium/FITC donor/acceptor fluorphore pair using an EnVision microplate reader (ex. 337 nm/terbium em. 490 nm/FITC em. 520 nm) at ambient temperature. The degree of fluorescence resonance energy transfer (the HTRF value) is expressed as the ratio of the fluorescence emission intensities of the FITC and terbium fluorophores (F^em 520 nm/F^em 490 nm). […]
Compound potencies were determined by first calculating % inhibition at each compound concentration according to equation 1: […]

| SMILES | IC50 (MOLM14 cells) | IC50 (MEIS1 mRNA) | IC50 (Menin/MLL) | % ILS (increased life span) [1] |
| --- | --- | --- | --- | --- |
| CNC(=O)N1CCC(CN2CC[C@H](Cc3cn(-c4ccc(F)cc4C(=O)N(C)C(C)C)c4cncc(C)c34)C2)CC1 (single isomer, unassigned) [Compound 101] | 41 nM | 7 nM |  |  |
| Nc1ncn([C@@H]2O[C@H](CO)[C@@H](O)[C@H]2O)c(=O)n1 [Azacitidine, azacitidine, reference compound] |  |  |  | 37% |
| CC(=O)N1CCC(N2CC[C@H](Cc3cn(-c4ccc(F)cc4C(=O)N(C)C(C)C)c4cncc(C)c34)C2)CC1 [Compound 156] | 42 nM | 187 nM |  |  |
| Cc1cncc2c1c(CC1CN(CC3CCNC(=O)C3)C1)cn2-c1ccc(F)cc1C(=O)N(C)C(C)C (stereo not shown) [Compound 196] |  |  | 0.19 nM |  |
| CC1(C)CCC(CN2CCN(c3ccc(C(=O)NS(=O)(=O)c4ccc(NCC5CCOCC5)c([N+](=O)[O-])c4)c(Oc4cnc5[nH]ccc5c4)c3)CC2)=C(c2ccc(Cl)cc2)C1 [Venetoclax, venetoclax, reference compound] |  |  |  | 11% |

More lines, main results first:

| IC50 (MOLM14 cells) | IC50 (MEIS1 mRNA) | IC50 (Menin/MLL) | SMILES | % ILS (increased life span) [1] |
| --- | --- | --- | --- | --- |
| 5 nM | 7 nM |  | COCC(=O)N1CCC(C(C)N2CCC(Cc3cn(-c4ccc(F)cc4C(=O)N(C)C(C)C)c4cncc(C)c34)C2)CC1 (single isomer, unassigned) [Compound 117a] |  |
|  |  | 0.237 nM | CC(=O)N1CC2CC(N3CC(Cc4cn(-c5ccc(F)cc5C(=O)N(C)C(C)C)c5cncc(C)c45)C3)CC2C1 (stereo not shown) [Compound 294a] |  |
